Values belong to the compound of their own block, whether it stands above or below them.
Experiments:
[1] = tested on: breast and ovarian cancer patients with BRCA mutations; design: method as in PMID 20609467, PMID 20609468; details: monotherapy; cited from earlier work
human bone marrow cells = tested on: human bone marrow cells; design: method as in PMID 17699724; details: CFU-GM colony-forming assay; cited from earlier work
[2] = nonacidic environments; cited from earlier work
PARP-1 = PARP-1 enzyme; cited from earlier work
[3] = Plasma pharmacokinetics of CEP-8983 after oral CEP-9722; assay type: in vivo, human; design: AUC0–∞, mean ± SD / AUC0–t, mean ± SD / AUCτ, mean ± SD: concentration or dose not given beside the values
Experimental: Pharmacokinetic serum samples were collected on day 1 of cycle 1 pre-dose and 0.5, 1, 2, 3, 4, 6, 8, 10, and 24 h post-dose; and on day 5 of cycle 1 and cycle 2 pre-dose, and 0.5, 1, 2, 3, 4, 6, 8, 10, 24, and 48 h post-dose. Urine samples were obtained on day 1 of cycle 1 during 4 intervals in the 24 h following study drug administration. Pharmacokinetic parameters (area under the plasma drug concentration–time curve from time 0 to infinity [AUC0–∞], AUC from time 0 to the time of the last measurable drug concentration [AUC0–t], AUC for 1 dosing interval [AUCτ] following multiple doses, maximum observed plasma concentration [C max], and time to maximum observed plasma concentration [T max]) were summarized at each visit (day 1 of cycle 1 and day 5 of cycles 1 and 2) using descriptive statistics.

[4] = tested on: chemoresistant tumor cells; design: method as in PMID 17699724; details: in vitro and in xenograft models; cited from earlier work
[5] = in vivo; cited from earlier work
PARP-2 = PARP-2 enzyme; cited from earlier work
[6] = tested on: patients with metastatic melanoma; details: phase 2, metastatic melanoma, combination with temozolomide; cited from earlier work
[7] = day 5 of cycle 1, nonsmoker without medication affecting gastric pH, n = 13
[8] = day 5 of cycle 1, smoker and/or with medication affecting gastric pH, n = 11

Structure (SMILES): O=C(c1cc(Cc2n[nH]c(=O)c3ccccc23)ccc1F)N1CCN(C(=O)C2CC2)CC1 [olaparib]
RECIST responses [1]: 30–40%

mean AUC0–t ([3]; day 1 of cycle 1, nonsmokers not receiving gastric pH-modifying medications): 4,960.6 ng h/mL
mean AUC0–t ([3]; day 1 of cycle 1, smokers and/or patients receiving gastric pH-modifying medications): 2,747.3 ng h/mL
AUC0–t, mean ± SD [3, 7]: 3,138.0 ± 2,160.74 ng h/mL
AUC0–∞, mean ± SD [3, 7]: 4,111.0 ± 4,126.79 ng h/mL
AUCτ, mean ± SD [3, 7]: 3,851.1 ± 3,578.78 ng h/mL
C max, mean ± SD [3, 7]: 607.5 ± 319.87 ng/mL
CL/F, mean ± SD [3, 7]: 20.4 ± 25.80 L/h
Percentage extrapolation, mean ± SD [3, 7]: 3.7 ± 3.82%
V/F, mean ± SD [3, 7]: 58.1 ± 60.23 L
t max, mean ± SD [3, 7]: 36 ± 39.6 min
λ z, mean ± SD [3, 7]: 0.1 ± 0.13 h⁻¹
AUC0–t, mean ± SD [3, 8]: 1,339.3 ± 2,127.07 ng h/mL
AUC0–∞, mean ± SD [3, 8]: 2,838.9 ± 5,740.57 ng h/mL
AUCτ, mean ± SD [3, 8]: 2,304.7 ± 4,161.29 ng h/mL
C max, mean ± SD [3, 8]: 352.5 ± 380.57 ng/mL
CL/F, mean ± SD [3, 8]: 67.1 ± 62.14 L/h
Percentage extrapolation, mean ± SD [3, 8]: 5.5 ± 8.29%
V/F, mean ± SD [3, 8]: 102.3 ± 100.76 L
t 1/2, mean ± SD [3, 8]: 42 ± 46.2 min
t max, mean ± SD [3, 8]: 36 ± 39.6 min
λ z, mean ± SD [3, 8]: 0.2 ± 0.21 h⁻¹
mean AUC0–t ([3]; day 5 of cycle 2, nonsmokers not receiving gastric pH-modifying medications): 2,574.4 ng h/mL
mean AUC0–t ([3]; day 5 of cycle 2, smokers and/or patients receiving gastric pH-modifying medications): 1,457.9 ng h/mL
Structure (SMILES): COc1cccc2[nH]c3c4c(c5c(c3c12)C(=O)NC5=O)CCC4 [CEP-8983]
myelotoxicity of temozolomide (human bone marrow cells): only modest increases
solubility [2]: poorly soluble
IC50 (PARP-1): 20 nM
sensitivity of chemoresistant tumor cells to temozolomide [4]: increased the sensitivity
oral bioavailability [5]: low oral bioavailability
IC50 (PARP-2): 6 nM

Structure (SMILES): CNCc1ccc(-c2[nH]c3cc(F)cc4c3c2CCNC4=O)cc1 [rucaparib]
patients requiring a reduction in the dose of temozolomide due to enhanced myelosuppression [6]: approximately half

Reference: article PMC4112042, “Phase 1 dose-escalation study of the PARP inhibitor CEP-9722 as monotherapy or in combination with temozolomide in patients with solid tumors” (Cancer Chemotherapy and Pharmacology, 2014)
